Experimental data taken from PubChem BioAssay AID1963839 (Molecular Pharmacology Branch, DTP, NCI, 2024).
“And” between values parts separate entries of the source, which are not always exact repeats. Equal values may be shown once.

System: 817829-284-R-J1-PDC complex spheroid viability
Assay: Anticancer human tumor 817829-284-R-J1-PDC patient-derived colon adenocarcinoma cell line growth inhibition [POLQ]
Settings: for viability, T/C: stronger effect = lower value
Method: Multicellular complex tumor spheroid response to Polymerase (POL) inhibitors (novobiocin, ART-558, RP6685) in combination with a variety of drugs and investigational agents in selected tumor cell lines
The POL inhibitors (novobiocin, ART-558, and RP6685) were evaluated both individually and in combination with standard of care and investigational anticancer small molecules within a complex spheroid model of solid tumors. . Complex spheroids include a stromal component modeled by human endothelial cells (HUVEC) and fibroblasts modeled by human mesenchymal stem cells (MSCs). The concentration ranges selected for each drug and investigational agent were based upon clinically achievable concentrations if the clinical Cmax of the agent was known.
Compounds. The drugs and investigational agents: novobiocin (NSC847541), ART-558 (NSC835418), RP-6685 (NSC848927), peposertib (NSC802822), ceralasertib (NSC780249), elimusertib (NSC800525), camonsertib (NSC841442), AZD-1390 (NSC803789), olaparib (NSC753686), talazoparib (NSC767125), rucaparib (NSC756644), sotorasib (NSC818433), MRTX-1133 (NSC836407), SN-38 (NSC673596), topotecan (NSC609699), epotoside (NSC141540), doxorubicin (NSC123127), gemcitabine (NSC613327), 5-fluorouracil (NSC19893), paclitaxel (NSC125973), vemurafenib (NSC761431), MSA-2 (NSC828583), SN-011 (NSC837082), adavosertib (NSC754352), prexasertib (NSC758257), carboplatin (NSC241240) and oxaliplatin (NSC266046), were obtained from the National Cancer Institute (NCI) Developmental Therapeutics Program Chemical Repository (21). The FDA-approved anticancer drug set is available from the Developmental Therapeutics Program at https://dtp.cancer.gov/organization/dscb/obtaining/. […] The stock solutions were prepared in dimethyl sulfoxide (DMSO, Sigma-Aldrich, St. Louis, MO, cat. D2650), except for the platinum compounds which were prepared in saline (Quality Biological, Gaithersburg, MD, cat. 114-055-101), at 800-fold the tested concentration and stored at -70 degrees C prior to their use. All drugs and investigational agents were tested over a range starting from a high concentration at or near the clinical Cmax and decreasing in half-log increments. If the clinical Cmax for an agent had not been determined, the highest concentration tested was 10 microM, except for SN-38, which was tested at a high concentration of 1 microM.
Cell Culture. All cells were maintained in an incubator at 37 degrees C and 5% CO2 with 95% humidity. The PDC lines were cultured according to standard operating procedures established by the NCI PDMR (https://pdmr.cancer.gov). Table 3 of the manuscript, lists the cell lines along with the number of the three cell types plated to form the mct-spheroids and media for tumor cell growth. After thawing, all PDC lines, except 997537-175-T-J1-PDC and 415267-285-R-J2-PDC, were cultured in Matrigel-coated flasks prepared with a working solution of 1X Ham's F-12 nutrient mix, without supplementation (Thermo Fisher Scientific, cat. 11765054), 100 U/mL penicillin-streptomycin (Thermo Fisher Scientific, cat. 15140122), and 2.5% Matrigel (Corning Inc., Corning, NY, cat. 354248) for the first three passages. The two PDC lines 997537-175-T-J1-PDC and 415267-285-R-J2-PDC were cultured on uncoated flasks. The 857933-349-R-J2-PDC line was cultured in 6C/Colon 1B media containing advanced DMEM/F-12 (Thermo Fisher Scientific, cat. 12634028), 10 mM HEPES (Thermo Fisher Scientific, cat. 15630080), 1X GlutaMAX supplement (Thermo Fisher Scientific, cat. 35050061), 0.1 mg/mL primocin (InvivoGen, San Diego, CA, cat. ant-pm-2), 10% defined fetal bovine serum, heat inactivated (HyClone Laboratories Inc., Logan, UT, cat. SH30070.03HI), 50% L-WRN conditioned media (ATCC, cat. CRL-3276), 1.25 mM N-Acetyl-L-cysteine (Sigma-Aldrich, cat. A9165), 10 mM nicotinamide (Sigma-Aldrich, cat. N0636), 1X B-27 supplement (Thermo Fisher Scientific, cat. 17504044), 1X N-2 supplement (Thermo Fisher Scientific, cat. […]
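Further: spheroids exposed to compounds for 7 days.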
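Wherever viability, T/C is given: 100% = DMSO vehicle-treated spheroids.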

Compound: C=CCn1c(=O)c2cnc(Nc3ccc(N4CCN(C)CC4)cc3)nc2n1-c1cccc(C(C)(C)O)n1
- viability, T/C (compound 0.00316 µM): 115% and 101% and 105%
- viability, T/C (compound 0.01 µM): 93.7% and 84% and 89.8%
- viability, T/C (compound 0.0316 µM): 71.1% and 89.5% and 98.8%
- viability, T/C (compound 0.1 µM): 77.6% and 72.5% and 64.8%
- viability, T/C (compound 0.316 µM): 36.1% and 33.8% and 40.5%
- viability, T/C (compound 1 µM): 5.95% and 6.09% and 5.44%
- IC50 (curve of compound): 188 nM and 195 nM and 208 nM

Compound: CC(=O)O[C@H]1C(=O)[C@@]2(C)[C@H]([C@H](OC(=O)c3ccccc3)[C@]3(O)C[C@H](OC(=O)[C@H](O)[C@@H](NC(=O)c4ccccc4)c4ccccc4)C(C)=C1C3(C)C)[C@]1(OC(C)=O)CO[C@@H]1C[C@@H]2O
- viability, T/C (compound 0.00949 µM): 5.15% and 4.45% and 5.76%
- viability, T/C (compound 0.03 µM): 3.94% and 3.44% and 4.19%
- viability, T/C (compound 0.0949 µM): 3.9% and 3.92% and 5.6%
- viability, T/C (compound 0.3 µM): 4.36% and 3.82% and 4.56%
- viability, T/C (compound 0.949 µM): 4.81% and 4.08% and 5.15%
- viability, T/C (compound 3 µM): 4.4% and 3.61% and 5.14%
- IC50 (curve of compound): < 9.49 nM

Compound: CC1COCCN1c1cc(-c2ccnn2C)c2ccnc(-c3ccn[nH]3)c2n1 (configuration not stated)
- viability, T/C (compound 0.0316 µM): 33.8% and 33.3% and 74.6%
- viability, T/C (compound 0.1 µM): 11.3% and 12.5% (2×)
- viability, T/C (compound 0.316 µM): 7.44% and 7.37% and 5.59%
- viability, T/C (compound 1 µM): 4.37% and 3.99% and 4.03%
- viability, T/C (compound 3.16 µM): 3.67% and 2.87% and 3.57%
- viability, T/C (compound 10 µM): 2.72% and 2.9% and 2.76%
- IC50 (curve of compound): < 31.6 nM and 49.9 nM

Compound: O=c1[nH]cc(F)c(=O)[nH]1
- viability, T/C (compound 0.0316 µM): 104% and 91.8% and 101%
- viability, T/C (compound 0.1 µM): 104% and 98.7% and 75.8%
- viability, T/C (compound 0.316 µM): 93% and 94.3% and 74.7%
- viability, T/C (compound 1 µM): 69.7% and 67.1% and 72.8%
- viability, T/C (compound 3.16 µM): 50.6% and 38.9% and 57.3%
- viability, T/C (compound 10 µM): 44.5% and 29.5% and 45.3%
- IC50 (curve of compound): 3450 nM and 1970 nM and 7540 nM

Compound: COc1ccc([C@@H](O)c2cc(-c3ncnc4cc(N5CCOCC5)ccc34)c(F)cc2Cl)nn1 + Cc1cccc(N(C)C(=O)C2C(O)CCN2c2nc(C)cc(C(F)(F)F)c2C#N)c1
- IC50 (curve of first compound, second compound 0.0316 µM): 715 nM
- IC50 (curve of first compound, second compound 0.1 µM): 719 nM
- IC50 (curve of first compound, second compound 0.316 µM): 932 nM
- IC50 (curve of first compound, second compound 1 µM): 1220 nM
- IC50 (curve of first compound, second compound 3.16 µM): 474 nM
- IC50 (curve of first compound, second compound 10 µM): 751 nM
- viability, T/C (second compound 0.0316 µM, first compound 0.0316 µM): 112%
- viability, T/C (second compound 0.0316 µM, first compound 0.1 µM): 112%
- viability, T/C (second compound 0.0316 µM, first compound 0.316 µM): 72%
- viability, T/C (second compound 0.0316 µM, first compound 1 µM): 42.3%
- viability, T/C (second compound 0.0316 µM, first compound 3.16 µM): 22.3%
- viability, T/C (second compound 0.0316 µM, first compound 10 µM): 17.9%
- viability, T/C (second compound 0.1 µM, first compound 0.0316 µM): 103%
- viability, T/C (second compound 0.1 µM, first compound 0.1 µM): 80.3%
- viability, T/C (second compound 0.1 µM, first compound 0.316 µM): 66.9%
- viability, T/C (second compound 0.1 µM, first compound 1 µM): 40.8%
- viability, T/C (second compound 0.1 µM, first compound 3.16 µM): 32.7%
- viability, T/C (second compound 0.1 µM, first compound 10 µM): 19.9%
- viability, T/C (second compound 0.316 µM, first compound 0.0316 µM): 107%
- viability, T/C (second compound 0.316 µM, first compound 0.1 µM): 74.6%
- viability, T/C (second compound 0.316 µM, first compound 0.316 µM): 102%
- viability, T/C (second compound 0.316 µM, first compound 1 µM): 47.1%
- viability, T/C (second compound 0.316 µM, first compound 3.16 µM): 28.3%
- viability, T/C (second compound 0.316 µM, first compound 10 µM): 15.5%
- viability, T/C (second compound 1 µM, first compound 0.0316 µM): 111%
- viability, T/C (second compound 1 µM, first compound 0.1 µM): 105%
- viability, T/C (second compound 1 µM, first compound 0.316 µM): 92.2%
- viability, T/C (second compound 1 µM, first compound 1 µM): 54.5%
- viability, T/C (second compound 1 µM, first compound 3.16 µM): 28.1%
- viability, T/C (second compound 1 µM, first compound 10 µM): 21.9%
- viability, T/C (second compound 3.16 µM, first compound 0.0316 µM): 98.6%
- viability, T/C (second compound 3.16 µM, first compound 0.1 µM): 130%
- viability, T/C (second compound 3.16 µM, first compound 0.316 µM): 62%
- viability, T/C (second compound 3.16 µM, first compound 1 µM): 38.3%
- viability, T/C (second compound 3.16 µM, first compound 3.16 µM): 27%
- viability, T/C (second compound 3.16 µM, first compound 10 µM): 18.6%
- viability, T/C (second compound 10 µM, first compound 0.0316 µM): 92%
- viability, T/C (second compound 10 µM, first compound 0.1 µM): 81%
- viability, T/C (second compound 10 µM, first compound 0.316 µM): 70.8%
- viability, T/C (second compound 10 µM, first compound 1 µM): 41.4%
- viability, T/C (second compound 10 µM, first compound 3.16 µM): 26.3%
- viability, T/C (second compound 10 µM, first compound 10 µM): 13.5%

Compound: O=C(Nc1ccc(O)c(NS(=O)(=O)c2ccc(F)cc2)c1)c1ccc(-c2ccccc2)cc1
- viability, T/C (compound 0.0316 µM): 94% and 91.9% and 101%
- viability, T/C (compound 0.1 µM): 96.5% and 104% and 103%
- viability, T/C (compound 0.316 µM): 93.7% and 100% and 103%
- viability, T/C (compound 1 µM): 92.4% and 99.3% and 78.3%
- viability, T/C (compound 3.16 µM): 73.5% and 88.2% and 76.5%
- viability, T/C (compound 10 µM): 38.7% and 41.5% and 39.8%
- IC50 (curve of compound): 6880 nM and 8170 nM and 7070 nM
